Columns and labels:
Type in all cases: in vivo
[1] = tested on: barnyardgrass (Echinochloa crus-galli); assay: Test A pre/postemergence
Outline: (§1)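 Seeds sown in loam–sand blend received a preemergence directed soil spray of test chemical in non-phytotoxic solvent with surfactant; same-formulation postemergence spray given concurrently to plants 2–10 cm tall at 1- to 2-leaf stage. Greenhouse ~ten days, then visual injury rating versus untreated controls, 0 (no effect) to 100 (complete control).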

[2] = tested on: crabgrass (Digitaria sanguinalis); assay: Test A pre/postemergence
Outline: as §1

[3] = tested on: giant foxtail (Setaria faberi); assay: Test A pre/postemergence
Outline: as §1

[4] = tested on: morningglory (Ipomoea spp.); assay: Test A pre/postemergence
Outline: as §1

[5] = tested on: redroot pigweed (Amaranthus retroflexus); assay: Test A pre/postemergence
Outline: as §1

[6] = tested on: velvetleaf (Abutilon theophrasti); assay: Test A pre/postemergence
Outline: as §1

[7] = tested on: barnyardgrass (Echinochloa crus-galli); assay: Test E flooded paddy water application; conditions: Flood, 21 days, scale 0 to 100 (0 no effect, 100 complete control)
Outline: (§2)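 Weeds sown in sterilized Tama silt loam (2.6% organic matter), greenhouse 29.5/26.7° C, 16-h photoperiod; at 2.0–2.5-leaf stage pots flooded to 3 cm and compound added to paddy water. Visual rating vs untreated controls after 21 days, 0 (no effect) to 100 (complete control).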

[8] = tested on: bearded (brdd.) sprangletop (Leptochloa fusca ssp. fascicularis); assay: Test E flooded paddy water application; conditions: Flood, 21 days, scale 0 to 100 (0 no effect, 100 complete control)
Outline: as §2

[9] = tested on: ducksalad (Heteranthera limosa); assay: Test E flooded paddy water application; conditions: Flood, 21 days, scale 0 to 100 (0 no effect, 100 complete control)
Outline: as §2

[10] = tested on: early watergrass (Echinochloa oryzoides); assay: Test E flooded paddy water application; conditions: Flood, 21 days, scale 0 to 100 (0 no effect, 100 complete control)
Outline: as §2

[11] = tested on: junglerice (Echinochloa colona); assay: Test E flooded paddy water application; conditions: Flood, 21 days, scale 0 to 100 (0 no effect, 100 complete control)
Outline: as §2

[12] = tested on: late watergrass (Echinochloa oryzicola); assay: Test E flooded paddy water application; conditions: Flood, 21 days, scale 0 to 100 (0 no effect, 100 complete control)
Outline: as §2

[13] = tested on: purple redstem (Ammannia coccinea); assay: Test E flooded paddy water application; conditions: Flood, 21 days, scale 0 to 100 (0 no effect, 100 complete control)
Outline: as §2

[14] = tested on: rice flatsedge (Cyperus iria); assay: Test E flooded paddy water application; conditions: Flood, 21 days, scale 0 to 100 (0 no effect, 100 complete control)
Outline: as §2

[15] = tested on: smallflower umbrella sedge (Cyperus difformis); assay: Test E flooded paddy water application; conditions: Flood, 21 days, scale 0 to 100 (0 no effect, 100 complete control)
Outline: as §2

[16] = tested on: transplanted rice seedlings (Oryza sativa cv. ‘Japonica-M202’); assay: Test E flooded paddy water application; conditions: Flood, 21 days, scale 0 to 100 (0 no effect, 100 complete control)
Outline: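 Greenhouse pots of Tama silt loam with weeds and rice at 2.0–2.5-leaf stage, flooded to 3 cm; compounds applied directly into paddy water, depth maintained. Visual rating versus untreated controls after 21 days, 0 (no effect) to 100 (complete control); 29.5/26.7 °C, 16-h photoperiod.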

[17] = tested on: water seeded rice seedlings (Oryza sativa cv. ‘Japonica-M202’); assay: Test E flooded paddy water application; conditions: Flood, 21 days, scale 0 to 100 (0 no effect, 100 complete control)
Outline: as §2

[18] = Postemergence, 125 g ai/ha, 0 to 100 scale (0 no effect, 100 complete control)
[19] = Postemergence, 500 g ai/ha, 0 to 100 scale (0 no effect, 100 complete control)
[20] = Preemergence, 125 g ai/ha, 0 to 100 scale where 0 is no effect and 100 is complete control, approximately ten days
[21] = Preemergence, 500 g ai/ha, 0 to 100 scale where 0 is no effect and 100 is complete control, approximately ten days

CCOC(=O)c1nc(-c2ccc(Cl)cc2Cl)nc(N)c1Cl [Compound 72]
10: Plant response rating, Crabgrass [2, 18]
80: Ducksalad plant response rating ([9]; 32 g ai/ha) | Plant response rating, Ducksalad ([9]; 16 g ai/ha)
35: Redstem plant response rating ([13]; 125 g ai/ha)
30: Plant response rating, Crabgrass [2, 19] | Sedge, Umbrella plant response rating ([15]; 32 g ai/ha)
90: Plant response rating, Flatsedge, Rice ([14]; 16 g ai/ha) | Sedge, Umbrella plant response rating ([15]; 125 g ai/ha)
100: Plant response rating, Pigweed [5, 21] | Ducksalad plant response rating ([9]; 64 g ai/ha) | Ducksalad plant response rating ([9]; 125 g ai/ha) | Ducksalad plant response rating ([9]; 250 g ai/ha) | Redstem plant response rating ([13]; 250 g ai/ha) | Flatsedge, Rice plant response rating ([14]; 32 g ai/ha) | Flatsedge, Rice plant response rating ([14]; 64 g ai/ha) | Flatsedge, Rice plant response rating ([14]; 125 g ai/ha) | Flatsedge, Rice plant response rating ([14]; 250 g ai/ha) | Sedge, Umbrella plant response rating ([15]; 250 g ai/ha)
25: Redstem plant response rating ([13]; 32 g ai/ha) | Redstem plant response rating ([13]; 64 g ai/ha)
0: Plant response rating, Barnyardgrass [1, 18] | Plant response rating, Barnyardgrass [1, 19] | Plant response rating, Barnyardgrass [1, 20] | Plant response rating, Barnyardgrass [1, 21] | Plant response rating, Crabgrass [2, 20] | Plant response rating, Crabgrass [2, 21] | Plant response rating, Foxtail, Giant [3, 18] | Plant response rating, Foxtail, Giant [3, 19] | Plant response rating, Foxtail, Giant [3, 20] | Plant response rating, Foxtail, Giant [3, 21] | Plant response rating, Morningglory [4, 20] | Plant response rating, Morningglory [4, 21] | Barnyardgrass plant response rating ([7]; 32 g ai/ha) | Barnyardgrass plant response rating ([7]; 125 g ai/ha) | Barnyardgrass plant response rating ([7]; 250 g ai/ha) | Sprangletop, Brdd. plant response rating ([8]; 32 g ai/ha) | Sprangletop, Brdd. plant response rating ([8]; 64 g ai/ha) | Sprangletop, Brdd. plant response rating ([8]; 125 g ai/ha) | Sprangletop, Brdd. plant response rating ([8]; 250 g ai/ha) | Plant response rating, Sprangletop, Brdd. ([8]; 16 g ai/ha) | Watergrass, Early plant response rating ([10]; 32 g ai/ha) | Watergrass, Early plant response rating ([10]; 64 g ai/ha) | Watergrass, Early plant response rating ([10]; 125 g ai/ha) | Watergrass, Early plant response rating ([10]; 250 g ai/ha) | Plant response rating, Watergrass, Early ([10]; 16 g ai/ha) | Junglerice plant response rating ([11]; 32 g ai/ha) | Junglerice plant response rating ([11]; 64 g ai/ha) | Junglerice plant response rating ([11]; 125 g ai/ha) | Junglerice plant response rating ([11]; 250 g ai/ha) | Plant response rating, Junglerice ([11]; 16 g ai/ha) | Watergrass, Late plant response rating ([12]; 32 g ai/ha) | Watergrass, Late plant response rating ([12]; 64 g ai/ha) | Watergrass, Late plant response rating ([12]; 125 g ai/ha) | Watergrass, Late plant response rating ([12]; 250 g ai/ha) | Plant response rating, Watergrass, Late ([12]; 16 g ai/ha) | Plant response rating, Redstem ([13]; 16 g ai/ha) | Plant response rating, Sedge, Umbrella ([15]; 16 g ai/ha) | Rice, Transplanted plant response rating ([16]; 32 g ai/ha) | Rice, Transplanted plant response rating ([16]; 64 g ai/ha) | Rice, Transplanted plant response rating ([16]; 125 g ai/ha) | Rice, Transplanted plant response rating ([16]; 250 g ai/ha) | Plant response rating, Rice, Transplanted ([16]; 16 g ai/ha) | Rice, Water Seeded plant response rating ([17]; 32 g ai/ha) | Rice, Water Seeded plant response rating ([17]; 64 g ai/ha) | Rice, Water Seeded plant response rating ([17]; 125 g ai/ha) | Rice, Water Seeded plant response rating ([17]; 250 g ai/ha) | Plant response rating, Rice, Water Seeded ([17]; 16 g ai/ha)
70: Plant response rating, Morningglory [4, 19]
40: Plant response rating, Velvetleaf [6, 20]
55: Plant response rating, Morningglory [4, 18] | Plant response rating, Velvetleaf [6, 21]
95: Plant response rating, Pigweed [5, 18] | Plant response rating, Pigweed [5, 19]
75: Plant response rating, Pigweed [5, 20] | Sedge, Umbrella plant response rating ([15]; 64 g ai/ha)
85: Plant response rating, Velvetleaf [6, 18] | Plant response rating, Velvetleaf [6, 19]

CCOC(=O)c1nc(-c2ccc(C)cc2)nc(N)c1Br [Compound 61]
10: Plant response rating, Barnyardgrass [1, 21] | Plant response rating, Foxtail, Giant [3, 21] | Plant response rating, Morningglory [4, 18] | Rice, Water Seeded plant response rating ([17]; 250 g ai/ha)
50: Plant response rating, Pigweed [5, 19] | Plant response rating, Velvetleaf [6, 21]
20: Watergrass, Early plant response rating ([10]; 250 g ai/ha) | Junglerice plant response rating ([11]; 64 g ai/ha) | Junglerice plant response rating ([11]; 125 g ai/ha) | Watergrass, Late plant response rating ([12]; 64 g ai/ha) | Watergrass, Late plant response rating ([12]; 125 g ai/ha) | Watergrass, Late plant response rating ([12]; 250 g ai/ha) | Sedge, Umbrella plant response rating ([15]; 32 g ai/ha)
30: Plant response rating, Crabgrass [2, 21] | Plant response rating, Morningglory [4, 19] | Plant response rating, Pigweed [5, 21]
60: Plant response rating, Barnyardgrass [1, 19] | Sprangletop, Brdd. plant response rating ([8]; 125 g ai/ha)
5: Plant response rating, Crabgrass [2, 19]
40: Flatsedge, Rice plant response rating ([14]; 125 g ai/ha) | Flatsedge, Rice plant response rating ([14]; 250 g ai/ha)
65: Barnyardgrass plant response rating ([7]; 500 g ai/ha) | Sprangletop, Brdd. plant response rating ([8]; 250 g ai/ha) | Sprangletop, Brdd. plant response rating ([8]; 500 g ai/ha) | Redstem plant response rating ([13]; 32 g ai/ha)
0: Plant response rating, Barnyardgrass [1, 20] | Plant response rating, Crabgrass [2, 18] | Plant response rating, Crabgrass [2, 20] | Plant response rating, Foxtail, Giant [3, 18] | Plant response rating, Foxtail, Giant [3, 20] | Plant response rating, Morningglory [4, 20] | Plant response rating, Pigweed [5, 20] | Plant response rating, Velvetleaf [6, 20] | Barnyardgrass plant response rating ([7]; 32 g ai/ha) | Barnyardgrass plant response rating ([7]; 64 g ai/ha) | Barnyardgrass plant response rating ([7]; 125 g ai/ha) | Barnyardgrass plant response rating ([7]; 250 g ai/ha) | Watergrass, Early plant response rating ([10]; 32 g ai/ha) | Watergrass, Early plant response rating ([10]; 64 g ai/ha) | Watergrass, Early plant response rating ([10]; 125 g ai/ha) | Junglerice plant response rating ([11]; 32 g ai/ha) | Watergrass, Late plant response rating ([12]; 32 g ai/ha) | Flatsedge, Rice plant response rating ([14]; 32 g ai/ha) | Flatsedge, Rice plant response rating ([14]; 64 g ai/ha) | Rice, Transplanted plant response rating ([16]; 32 g ai/ha) | Rice, Transplanted plant response rating ([16]; 64 g ai/ha) | Rice, Transplanted plant response rating ([16]; 125 g ai/ha) | Rice, Transplanted plant response rating ([16]; 250 g ai/ha) | Rice, Water Seeded plant response rating ([17]; 32 g ai/ha) | Rice, Water Seeded plant response rating ([17]; 64 g ai/ha) | Rice, Water Seeded plant response rating ([17]; 125 g ai/ha)
95: Flatsedge, Rice plant response rating ([14]; 500 g ai/ha) | Sedge, Umbrella plant response rating ([15]; 250 g ai/ha)
80: Redstem plant response rating ([13]; 64 g ai/ha) | Redstem plant response rating ([13]; 125 g ai/ha)
25: Plant response rating, Foxtail, Giant [3, 19] | Plant response rating, Pigweed [5, 18] | Watergrass, Early plant response rating ([10]; 500 g ai/ha) | Junglerice plant response rating ([11]; 250 g ai/ha) | Junglerice plant response rating ([11]; 500 g ai/ha) | Watergrass, Late plant response rating ([12]; 500 g ai/ha) | Rice, Transplanted plant response rating ([16]; 500 g ai/ha)
100: Plant response rating, Velvetleaf [6, 19] | Ducksalad plant response rating ([9]; 32 g ai/ha) | Ducksalad plant response rating ([9]; 64 g ai/ha) | Ducksalad plant response rating ([9]; 125 g ai/ha) | Ducksalad plant response rating ([9]; 250 g ai/ha) | Ducksalad plant response rating ([9]; 500 g ai/ha) | Redstem plant response rating ([13]; 250 g ai/ha) | Redstem plant response rating ([13]; 500 g ai/ha) | Sedge, Umbrella plant response rating ([15]; 500 g ai/ha)
15: Plant response rating, Morningglory [4, 21]
75: Sedge, Umbrella plant response rating ([15]; 64 g ai/ha)
85: Sedge, Umbrella plant response rating ([15]; 125 g ai/ha)
35: Plant response rating, Barnyardgrass [1, 18] | Sprangletop, Brdd. plant response rating ([8]; 32 g ai/ha) | Sprangletop, Brdd. plant response rating ([8]; 64 g ai/ha) | Rice, Water Seeded plant response rating ([17]; 500 g ai/ha)
70: Plant response rating, Velvetleaf [6, 18]
